# Source: patent US12077503B2, “Substituted cyclic amides and their use as herbicides” (FMC CORPORATION, priority 2015, dated 2024)
# Read-outs that look alike come from different tables or passages of the source.
# How the values were obtained:
# Type in all cases: in vivo
# [1] = system: Galium (catchweed bedstraw, Galium aparine); experiment: Test A postemergence; conditions: Galium, post-emergence, 240 h; for pest or weed control at 125 g/ha: 125 g ai/ha
# Summary of the method: (§1)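 Seeds sprayed preemergence with a directed soil spray, or plants at 2 to 10 cm height and one- to two-leaf stage sprayed postemergence, with test chemicals in a non-phytotoxic solvent mixture containing surfactant, in loam soil–sand blend. Injury rated visually against untreated controls after about 10 d in greenhouse, 0 (no effect) to 100 (complete control).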
# [2] = system: Kochia (Kochia scoparia); experiment: Test A postemergence; conditions: Bassia scoparia, post-emergence, 240 h; for pest or weed control at 125 g/ha: 125 g ai/ha
# Summary of the method: as §1
# [3] = system: barnyardgrass (Echinochloa crus-galli); experiment: Test A postemergence; conditions: Echinochloa crus-galli, post-emergence, 240 h, 125 g ai/ha, postemergence; visual injury after approximately 10 d; 0 to 100 scale (0 no effect, 100 complete control); read-out: Plant response rating, Barnyardgrass
# Summary of the method: as §1
# [4] = system: blackgrass (Alopecurus myosuroides); experiment: Test A postemergence; conditions: Alopecurus myosuroides, post-emergence, 240 h; for pest or weed control at 125 g/ha: 125 g ai/ha
# Summary of the method: as §1
# [5] = system: corn (Zea mays); experiment: Test A postemergence; conditions: Zea mays, post-emergence, 240 h
# Summary of the method: as §1
# [6] = system: giant foxtail (Setaria faberii); experiment: Test A postemergence; conditions: Setaria faberi, post-emergence, 240 h; for pest or weed control at 125 g/ha: 125 g ai/ha
# Summary of the method: as §1
# [7] = system: pigweed (Amaranthus retroflexus); experiment: Test A postemergence; conditions: Amaranthus retroflexus, post-emergence, 240 h; for pest or weed control at 125 g/ha: 125 g ai/ha
# Summary of the method: as §1
# [8] = system: ragweed (common ragweed, Ambrosia elatior); experiment: Test A postemergence; conditions: Ambrosia artemisiifolia, post-emergence, 240 h; for pest or weed control at 125 g/ha: 125 g ai/ha
# Summary of the method: as §1
# [9] = system: ryegrass, Italian (Italian ryegrass, Lolium multiflorum); experiment: Test A postemergence; conditions: Lolium multiflorum, post-emergence, 240 h; for pest or weed control at 125 g/ha: 125 g ai/ha
# Summary of the method: as §1
# [10] = system: wheat (Triticum aestivum); experiment: Test A postemergence; conditions: Triticum aestivum, post-emergence, 240 h; for plant injury at 125 g/ha: 125 g ai/ha
# Summary of the method: as §1
# [11] = system: barnyardgrass (Echinochloa crus-galli); experiment: Test B flooded paddy test; conditions: Echinochloa crus-galli, Flood, 250 g ai/ha
# Summary of the method: (§2)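 Evaluation by eye, against controls, occurred 13–15 d post-treatment in a greenhouse, using a 0 (no effect) to 100 (complete control) scale. Application was into the paddy water, 3 cm deep over the soil, on 2-leaf plants.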
# [12] = system: ducksalad (Heteranthera limosa); experiment: Test B flooded paddy test; conditions: Heteranthera limosa, Flood, 250 g ai/ha
# Summary of the method: as §2
# [13] = system: rice (Oryra sativa); experiment: Test B flooded paddy test; conditions: Oryza sativa, Flood, 250 g ai/ha
# Summary of the method: as §2
# [14] = system: sedge, umbrella (small-flower umbrella sedge, Cyperus difformis); experiment: Test B flooded paddy test; conditions: Cyperus difformis, Flood, 250 g ai/ha
# Summary of the method: as §2
smiles,measurement,setting,value
Cc1cc([C@H]2CNC(=O)[C@@H]2C(=O)Nc2ccc(F)cc2F)ccc1Br [Compound 725],pest or weed control at 125 g/ha,"[1]; postemergence, visual injury after approximately 10 d, 0 to 100 scale (0 no effect, 100 complete control), read-out: Plant response rating, Galium",20%
same,pest or weed control at 125 g/ha,"[2]; postemergence, visual injury after approximately 10 d, 0 to 100 scale (0 no effect, 100 complete control), read-out: Plant response rating, Kochia",0%
same,pest or weed control at 125 g/ha,[3],70%
same,pest or weed control at 125 g/ha,"[4]; postemergence, visual injury after approximately 10 d, 0 to 100 scale (0 no effect, 100 complete control), read-out: Plant response rating, Blackgrass",0%
same,"Corn plant response rating (crop injury, 0 = no effect, 100 = complete kill) at 125 g/ha","[5]; 125 g ai/ha, postemergence, visual injury after approximately 10 d, 0 to 100 scale (0 no effect, 100 complete control)",0%
same,pest or weed control at 125 g/ha,"[6]; postemergence, visual injury after approximately 10 d, 0 to 100 scale (0 no effect, 100 complete control), read-out: Plant response rating, Foxtail, Giant",0%
same,pest or weed control at 125 g/ha,"[7]; postemergence, visual injury after approximately 10 d, 0 to 100 scale (0 no effect, 100 complete control), read-out: Plant response rating, Pigweed",0%
same,pest or weed control at 125 g/ha,"[8]; postemergence, visual injury after approximately 10 d, 0 to 100 scale (0 no effect, 100 complete control), read-out: Plant response rating, Ragweed",0%
same,pest or weed control at 125 g/ha,"[9]; postemergence, visual injury after approximately 10 d, 0 to 100 scale (0 no effect, 100 complete control), read-out: Plant response rating, Ryegrass, Italian",0%
same,plant injury at 125 g/ha,"[10]; postemergence, visual injury after approximately 10 d, 0 to 100 scale (0 no effect, 100 complete control), read-out: Plant response rating, Wheat",0%
same,pest or weed control at 250 g/ha,"[11]; scale of 0 to 100 where 0 is no effect and 100 is complete control, read-out: Barnyardgrass plant response rating",0%
same,pest or weed control at 250 g/ha,"[12]; scale of 0 to 100 where 0 is no effect and 100 is complete control, read-out: Ducksalad plant response rating",100%
same,pest or weed control at 250 g/ha,"[13]; scale of 0 to 100 where 0 is no effect and 100 is complete control, read-out: Rice plant response rating",0%
same,pest or weed control at 250 g/ha,"[14]; scale of 0 to 100 where 0 is no effect and 100 is complete control, read-out: Sedge, Umbrella plant response rating",0%
COc1cc(OC)cc([C@H]2CN(C)C(=O)[C@@H]2C(=O)Nc2cccc(F)c2F)c1 [Compound 1370],pest or weed control at 125 g/ha,"[1]; Postemergence, visual rating about 10 d after treatment, read-out: Galium plant response rating (0 to 100 scale)",40%
same,pest or weed control at 500 g/ha,"[1]; Postemergence, 500 g ai/ha, visual injury, 0 to 100 scale (0 no effect, 100 complete control), approx. 10 d, read-out: Plant response rating, Galium",50%
same,pest or weed control at 125 g/ha,"[2]; Postemergence, visual rating about 10 d after treatment, read-out: Kochia plant response rating (0 to 100 scale)",50%
same,pest or weed control at 500 g/ha,"[2]; Postemergence, 500 g ai/ha, visual injury, 0 to 100 scale (0 no effect, 100 complete control), approx. 10 d, read-out: Plant response rating, Kochia",50%
same,pest or weed control at 125 g/ha,"[4]; Postemergence, visual rating about 10 d after treatment, read-out: Blackgrass plant response rating (0 to 100 scale)",50%
same,pest or weed control at 500 g/ha,"[4]; Postemergence, 500 g ai/ha, visual injury, 0 to 100 scale (0 no effect, 100 complete control), approx. 10 d, read-out: Plant response rating, Blackgrass",80%
same,plant injury at 125 g/ha,"[5]; 125 g ai/ha, Postemergence, visual rating about 10 d after treatment, read-out: Corn plant response rating (0 to 100 scale)",30%
same,"Corn plant response rating (crop injury, 0 = no effect, 100 = complete kill) at 500 g/ha","[5]; Postemergence, 500 g ai/ha, visual injury, 0 to 100 scale (0 no effect, 100 complete control), approx. 10 d",80%
same,pest or weed control at 125 g/ha,"[6]; Postemergence, visual rating about 10 d after treatment, read-out: Foxtail, Giant plant response rating (0 to 100 scale)",90%
same,pest or weed control at 500 g/ha,"[6]; Postemergence, 500 g ai/ha, visual injury, 0 to 100 scale (0 no effect, 100 complete control), approx. 10 d, read-out: Plant response rating, Foxtail, Giant",90%
same,pest or weed control at 125 g/ha,"[7]; Postemergence, visual rating about 10 d after treatment, read-out: Pigweed plant response rating (0 to 100 scale)",0%
same,pest or weed control at 500 g/ha,"[7]; Postemergence, 500 g ai/ha, visual injury, 0 to 100 scale (0 no effect, 100 complete control), approx. 10 d, read-out: Plant response rating, Pigweed",30%
same,pest or weed control at 125 g/ha,"[8]; Postemergence, visual rating about 10 d after treatment, read-out: Ragweed plant response rating (0 to 100 scale)",0%
same,pest or weed control at 500 g/ha,"[8]; Postemergence, 500 g ai/ha, visual injury, 0 to 100 scale (0 no effect, 100 complete control), approx. 10 d, read-out: Plant response rating, Ragweed",30%
same,pest or weed control at 125 g/ha,"[9]; Postemergence, visual rating about 10 d after treatment, read-out: Ryegrass, Italian plant response rating (0 to 100 scale)",40%
same,pest or weed control at 500 g/ha,"[9]; Postemergence, 500 g ai/ha, visual injury, 0 to 100 scale (0 no effect, 100 complete control), approx. 10 d, read-out: Plant response rating, Ryegrass, Italian",70%
same,plant injury at 125 g/ha,"[10]; Postemergence, visual rating about 10 d after treatment, read-out: Wheat plant response rating (0 to 100 scale)",40%
same,plant injury at 500 g/ha,"[10]; Postemergence, 500 g ai/ha, visual injury, 0 to 100 scale (0 no effect, 100 complete control), approx. 10 d, read-out: Plant response rating, Wheat",70%
same,pest or weed control at 250 g/ha,"[11]; 360 h, visually evaluated after 13 to 15 d, read-out: Plant response rating, Barnyardgrass (0 to 100 scale where 0 is no effect and 100 is complete control)",60%
same,pest or weed control at 250 g/ha,"[12]; 360 h, visually evaluated after 13 to 15 d, read-out: Plant response rating, Ducksalad (0 to 100 scale where 0 is no effect and 100 is complete control)",70%
same,pest or weed control at 250 g/ha,"[13]; 360 h, visually evaluated after 13 to 15 d, read-out: Plant response rating, Rice (0 to 100 scale where 0 is no effect and 100 is complete control)",20%
same,pest or weed control at 250 g/ha,"[14]; 360 h, visually evaluated after 13 to 15 d, read-out: Plant response rating, Sedge, Umbrella (0 to 100 scale where 0 is no effect and 100 is complete control)",0%
